According to patent US20230212549A1, “COMPOUNDS COMPRISING A […] LIGAND AND USE THEREOF” (priority 2021, published 2023):
Numbered stars: 1 amine (or outer) side, 2 acyl side, 3 side chain; on linkers, the order of the positions; unused ones are H or OH. Bridge positions count the residues as written; N and C are the ends. Square brackets hold non-standard residues; d marks the D form. Peptide text beside a SMILES is read from it. * marks the point of attachment. ξ: configuration not given here. X13 = O=C(O)CN1CCN(CC(=O)O)CCN(CC(=O)N2CCN(Cc3cc(C[*:1])cc(C[*:2])c3)CC2)CCN(CC(=O)O)CC1; X11 = O=C(O)CN1CCN(CC(=O)O)CCN(C(CCC(=O)NCCSCc2cc(C[*:1])cc(C[*:2])c2)C(=O)O)CC1; Pro(trans-4-Ph) = O=C(O)[C@@H]1C[C@@H](c2ccccc2)CN1; Oic = O=C(O)[C@@H]1C[C@@H]2CCCC[C@@H]2N1; Phe(2-Cl) = N[C@@H](Cc1ccccc1Cl)C(=O)O; mXylylene = c1cc(C[*:1])cc(C[*:2])c1; Nphe = O=C(O)CNCc1ccccc1; Hexanoyl = CCCCCC(=O)*; CO = O=C([*:1])[*:2]; ξC = NC(CS)C(=O)O; NHBu = CCCCN*

Assays:
Human recombinant FAP = Human recombinant FAP (Homo sapiens, UniProt Q12884); test: FRET-based FAP protease activity assay; assay type: biochemical; parameters: purchased R&D systems 3715-SE
[1] = molecular target: T1, FAP-expressing human WI-38 fibroblasts (Homo sapiens, UniProt Q12884); test: Competitive FACS binding assay
T1 construct: FAP-expressing human WI-38 fibroblasts (ECACC) were cultured in EMEM; host or cells: WI-38 human fibroblasts
Description: Cells were analyzed in an Attune NxT flow cytometer. […] […].
Cells were analyzed in an Attune NxT flow cytometer. […]

in vivo = details: female, athymic nude, mouse, iv, ^68Ga-labeled, PET/CT; for tissue uptake at 0.25 h: 0.25 h post tracer injection; for tissue uptake at 1 h: 1 h post tracer injection; for tissue uptake at 3 h: 3 h post tracer injection
[2] = pIC50 Category (activity), Recombinant human FAP
[3] = pIC50 Category (Activity), FRET-based FAP protease activity assay, recombinant human FAP, 37° C.
[4] = pIC50 Category (Activity), FRET-peptide substrate, 37° C.

T1 sequence (Q12884 whole entry): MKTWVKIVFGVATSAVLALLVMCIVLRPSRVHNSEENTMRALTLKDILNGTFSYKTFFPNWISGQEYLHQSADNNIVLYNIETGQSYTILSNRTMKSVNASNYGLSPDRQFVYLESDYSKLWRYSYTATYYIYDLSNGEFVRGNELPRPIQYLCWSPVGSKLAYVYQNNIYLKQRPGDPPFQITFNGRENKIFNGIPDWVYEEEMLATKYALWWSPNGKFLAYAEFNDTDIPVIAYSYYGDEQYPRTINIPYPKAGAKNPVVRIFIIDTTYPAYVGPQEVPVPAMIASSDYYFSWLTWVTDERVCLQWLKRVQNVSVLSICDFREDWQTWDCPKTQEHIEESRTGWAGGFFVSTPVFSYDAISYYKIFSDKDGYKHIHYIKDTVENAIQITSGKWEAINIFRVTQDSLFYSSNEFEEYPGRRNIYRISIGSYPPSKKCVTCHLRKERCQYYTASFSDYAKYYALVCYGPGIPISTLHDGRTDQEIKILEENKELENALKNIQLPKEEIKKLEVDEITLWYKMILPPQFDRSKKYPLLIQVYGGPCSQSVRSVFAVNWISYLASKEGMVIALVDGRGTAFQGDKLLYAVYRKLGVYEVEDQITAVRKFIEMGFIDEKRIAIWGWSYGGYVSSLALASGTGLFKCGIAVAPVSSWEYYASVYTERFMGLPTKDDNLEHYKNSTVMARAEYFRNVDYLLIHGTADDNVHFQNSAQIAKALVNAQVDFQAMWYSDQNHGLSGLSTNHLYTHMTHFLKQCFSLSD
Chain of Human recombinant FAP (Q12884 whole entry): as above

IC50 [1]	IC50 (Human recombinant FAP; [3])	IC50 (Human recombinant FAP; [4])	SMILES	also measured
> 1000 nM	> 1000 nM	–	CCCCCC(=O)N[C@H]1CSCc2cccc(c2)CSC[C@@H](C(N)=O)NC(=O)[C@H](Cc2ccccc2)NC(=O)[C@H](CCC(N)=O)NC(=O)[C@H]([C@@H](C)O)NC(=O)[C@@H]2CCCN2C(=O)CN(Cc2ccccc2)C1=O [3BP-3748, Hex-[Cys(3MeBn)-Nphe-Pro-Thr-Gln-Phe-Cys]-NH2] (Hexanoyl-C[Nphe]PTQFC-NH2; linker 1-7 via mXylylene)	–
10 to 79.4 nM	–	10 to 79.4 nM	C=CCCC(=O)N[C@H]1CSCc2cc(CSCCNC(=O)CN3CCN(CC(=O)O)CCN(CC(=O)O)CCN(CC(=O)O)CC3)cc(c2)CSC[C@@H](C(=O)O)NC(=O)[C@H](Cc2ccccc2)NC(=O)[C@H](CCC(N)=O)NC(=O)[C@H]([C@@H](C)O)NC(=O)[C@@H]2CCCN2C(=O)[C@@H]2CCCN2C1=O [3BP-3914, Peet-[Cys(tMeBn(DOTA-AET))-Pro-Pro-Thr-Gln-Phe-Cys]-OH]	–
10 to 79.4 nM	–	10 to 79.4 nM	C[C@@H](O)[C@@H]1NC(=O)[C@@H]2CCCN2C(=O)[C@@H]2CCCN2C(=O)[C@@H](NC(=O)[C@H]2CCCO2)CSCc2cc(CSCCNC(=O)CN3CCN(CC(=O)O)CCN(CC(=O)O)CCN(CC(=O)O)CC3)cc(c2)CSC[C@@H](C(=O)O)NC(=O)[C@H](Cc2ccccc2)NC(=O)[C@H](CCC(N)=O)NC1=O [3BP-3911, Rth-[Cys(tMeBn(DOTA-AET))-Pro-Pro-Thr-Gln-Phe-Cys]-OH]	–
100 to 794 nM	100 to 794 nM	–	CSCC[C@H](NC(C)=O)C(=O)N[C@H]1CSCc2cccc(c2)CSC[C@@H](C(=O)N[C@@H](CC(=O)O)C(=O)N[C@@H](Cc2c[nH]cn2)C(=O)N[C@@H](Cc2ccccc2)C(=O)N[C@@H](CCCNC(=N)N)C(=O)N[C@@H](CC(=O)O)C(N)=O)NC(=O)[C@H](Cc2ccccc2)NC(=O)[C@H](CCC(=O)O)NC(=O)[C@H]([C@@H](C)O)NC(=O)[C@@H]2CCCN2C(=O)[C@@H]2C[C@@H]3CCCC[C@@H]3N2C1=O [3BP-3216, Ac-Met-[Cys(3MeBn)-Oic-Pro-Thr-Glu-Phe-Cys]-Asp-His-Phe-Arg-Asp-NH2] (Ac-MC[Oic]PTEFCDHFRD-NH2; linker 2-8 via mXylylene)	–
> 1000 nM	100 to 794 nM	–	CCCCCC(=O)N[C@H]1CSCc2cccc(c2)CSC[C@@H](C(N)=O)NC(=O)[C@H](Cc2ccccc2)NC(=O)[C@H](CCC(=O)O)NC(=O)[C@H]([C@@H](C)O)NC(=O)[C@@H]2C[C@@H](c3ccccc3)CN2C(=O)[C@@H]2CCCN2C1=O [3BP-3353, Hex-[Cys(3MeBn)-Pro-Eay-Thr-Glu-Phe-Cys]-NH2] (Hexanoyl-CP[Pro(trans-4-Ph)]TEFC-NH2; linker 1-7 via mXylylene)	–
–	–	–	CCCCNC(=O)N[C@H]1CSCc2cc(CSCCNC(=O)CCP(=O)(O)CN3CCN(CP(=O)(O)CO)CCN(CP(=O)(O)CO)CC3)cc(c2)CSC[C@@H](C(=O)O)NC(=O)[C@H](Cc2ccccc2)NC(=O)[C@H](CCC(N)=O)NC(=O)[C@H]([C@@H](C)O)NC(=O)[C@@H]2CCCN2C(=O)[C@@H]2CCCN2C1=O [3BP-5260, nBu-CAyl-[C(tMeBn(GaNOPO-AET))-PPTQFC]-OH]	pIC50 Category (activity) (Human recombinant FAP; Recombinant human FAP): A (pIC50 category A stands for pIC50 values >8.0); pIC50 Category (FACS) ([1]; FAP-expressing human WI-38 fibroblasts): A (pIC50 category A stands for pIC50 values >8.0)
100 to 794 nM	10 to 79.4 nM	–	CCCCCC(=O)N[C@H]1CSCc2cccc(c2)CSC[C@@H](C(N)=O)NC(=O)[C@H](Cc2ccccc2Cl)NC(=O)[C@H](CCC(=O)O)NC(=O)[C@H]([C@@H](C)O)NC(=O)[C@@H]2CCCN2C(=O)[C@@H]2CCCN2C1=O [3BP-3368, Hex-[Cys(3MeBn)-Pro-Pro-Thr-Glu-Ocf-Cys]-NH2] (Hexanoyl-CPPTE[Phe(2-Cl)]C-NH2; linker 1-7 via mXylylene)	–
10 to 79.4 nM	10 to 79.4 nM	–	CSCC[C@@H](NC(C)=O)C(=O)N[C@H]1CSCc2cc(CSCCNC(=O)CN3CCN(CC(=O)O)CCN(CC(=O)O)CCN(CC(=O)O)CC3)cc(c2)CSC[C@@H](C(=O)O)NC(=O)[C@H](Cc2ccccc2)NC(=O)[C@H](CCC(N)=O)NC(=O)[C@H]([C@@H](C)O)NC(=O)[C@@H]2CCCN2C(=O)[C@@H]2CCCN2C1=O [3BP-3682, Ac-met-[Cys(tMeBn(DOTA-AET))-Pro-Pro-Thr-Gln-Phe-Cys]-OH]	–
10 to 79.4 nM	–	10 to 79.4 nM	C#CCCCC(=O)N[C@H]1CSCc2cc(CSCCNC(=O)CN3CCN(CC(=O)O)CCN(CC(=O)O)CCN(CC(=O)O)CC3)cc(c2)CSC[C@@H](C(=O)O)NC(=O)[C@H](Cc2ccccc2)NC(=O)[C@H](CCC(N)=O)NC(=O)[C@H]([C@@H](C)O)NC(=O)[C@@H]2CCCN2C(=O)[C@@H]2CCCN2C1=O [3BP-3913, Hyn-[Cys(tMeBn(DOTA-AET))-Pro-Pro-Thr-Gln-Phe-Cys]-OH]	–

SMILES	IC50 [1]	IC50 (Human recombinant FAP; [3])	IC50 (Human recombinant FAP; [4])	also measured
CCCCNC(=O)N[C@H]1CSCc2cc(CSCCNC(=O)CCC(C(=O)O)N3CCN(CC(=O)O)CCN(CC(=O)O)CC3)cc(c2)CSCC(C(=O)O)NC(=O)[C@H](Cc2ccccc2)NC(=O)[C@H](CCC(=O)O)NC(=O)[C@H]([C@@H](C)O)NC(=O)[C@@H]2CCCN2C(=O)[C@@H]2CCCN2C1=O (stereo partly drawn) [3BP-4724, nBu-CAyl-[Cys(tMeBn(NODAGA-AET))-Pro-Pro-Thr-Glu-Phe-Cys]-OH] ({NHBu-CO}-CPPTEF[ξC]-OH; linker 1-7 via X11)	< 10 nM	–	–	IC50 (Human recombinant FAP; [2]): 10 to 79.4 nM; tissue uptake at 0.25 h (in vivo; blood pool surrogate (BPS), uptake BPS 0.25 h, BPS (blood pool surrogate)): 2.17 %ID/g; tissue uptake at 1 h (in vivo; blood pool surrogate (BPS), uptake BPS 1 h, BPS (blood pool surrogate)): 1.04 %ID/g; tissue uptake at 3 h (in vivo; blood pool surrogate (BPS), uptake BPS 3 h, BPS (blood pool surrogate)): 0.49 %ID/g; tissue uptake at 0.25 h (in vivo; kidneys, uptake Kidneys 0.25 h): 4.28 %ID/g; tissue uptake at 1 h (in vivo; kidneys, uptake Kidneys 1 h): 1.87 %ID/g; tissue uptake at 3 h (in vivo; kidneys, uptake Kidneys 3 h): 0.86 %ID/g; tissue uptake at 0.25 h (in vivo; tumor, uptake Tumor 0.25 h, HEK-FAP tumor): 3.87 %ID/g; tissue uptake at 1 h (in vivo; tumor, uptake Tumor 1 h, HEK-FAP tumor): 4.37 %ID/g; tissue uptake at 3 h (in vivo; tumor, uptake Tumor 3 h, HEK-FAP tumor): 4.46 %ID/g
CCCCNC(=O)N[C@H]1CSCc2cc(CSCCNC(=O)CCC(C(=O)O)N3CCN(CC(=O)O)CCN(CC(=O)O)CC3)cc(c2)CSCC(C(=O)O)NC(=O)[C@H](Cc2ccccc2)NC(=O)[C@H](CCC(N)=O)NC(=O)[C@H]([C@@H](C)O)NC(=O)[C@@H]2CCCN2C(=O)[C@@H]2CCCN2C1=O (stereo partly drawn) [3BP-4723, nBu-CAyl-[Cys(tMeBn(NODAGA-AET))-Pro-Pro-Thr-Gln-Phe-Cys]-OH]	< 10 nM	–	–	IC50 (Human recombinant FAP; [2]): < 10 nM
CCCCCC(=O)N[C@H]1CSCc2cc(CSCCNC(=O)CCP(=O)(O)CN3CCN(CP(=O)(O)CO)CCN(CP(=O)(O)CO)CC3)cc(c2)CSCC(C(N)=O)NC(=O)[C@H](Cc2ccccc2)NC(=O)[C@H](CCC(N)=O)NC(=O)[C@H]([C@@H](C)O)NC(=O)[C@@H]2CCCN2C(=O)[C@@H]2CCCN2C1=O (stereo partly drawn) [3BP-4729, Hex-[Cys(tMeBn(NOPO-AET))-Pro-Pro-Thr-Gln-Phe-Cys]-NH2]	< 10 nM	–	–	IC50 (Human recombinant FAP; [2]): < 10 nM
CCCCCC(=O)N[C@H]1CSCc2cc(cc(CN3CCN(C(=O)CN4CCN(CC(=O)O)CCN(CC(=O)O)CCN(CC(=O)O)CC4)CC3)c2)CSC[C@@H](C(=O)N[C@@H](CC(=O)O)C(N)=O)NC(=O)[C@H](CCC(N)=O)NC(=O)[C@H](Cc2ccccc2)NC(=O)[C@@H]2CCCN2C(=O)[C@H]([C@@H](C)O)NC(=O)[C@@H]2CCCN2C1=O [3BP-3854, Hex-[Cys(tMeBn(DOTA-PP))-Pro-Thr-Pro-Phe-Gln-Cys]-Asp-NH2] (Hexanoyl-CPTPFQCD-NH2; linker 1-7 via X13)	> 1000 nM	> 1000 nM	–	–
CCCCCC(=O)N[C@H]1CSCc2cc(CSCCNC(=O)CCCC(=O)Nc3ccc(C[C@@H](CN(CCN(CC(=O)O)CC(=O)O)CC(=O)O)N(CC(=O)O)CC(=O)O)cc3)cc(c2)CSC[C@@H](C(=O)O)NC(=O)[C@H](Cc2ccccc2)NC(=O)[C@H](CCC(N)=O)NC(=O)[C@H]([C@@H](C)O)NC(=O)[C@@H]2CCCN2C(=O)[C@@H]2CCCN2C1=O [3BP-4366, Hex-[Cys-(tMeBn(DTPABzl-Glutar-AET))-Pro-Pro-Thr-Gln-Phe-Cys]-OH]	100 to 794 nM	–	100 to 794 nM	–
CCCCCC(=O)N[C@H]1CSCc2cc(CSCCNC(=O)CCC(=O)NCCCOCCOCCOCCCNC(=O)CCC(=O)NCCCOCCOCCOCCCNC(=O)CCC(=O)NCCCOCCOCCOCCCNC(=O)CCC(=O)NCCCOCCOCCOCCCNC(=O)CCCC[C@@H]3SC[C@@H]4NC(=O)N[C@@H]43)cc(c2)CSC[C@@H](C(=O)O)NC(=O)[C@H](Cc2ccccc2)NC(=O)[C@H](CCC(N)=O)NC(=O)[C@H]([C@@H](C)O)NC(=O)[C@@H]2CCCN2C(=O)[C@@H]2CCCN2C1=O [3BP-4170, Hex-[Cys-(tMeBn(Bio-Ttds-Ttds-Ttds-Ttds-AET))-Pro-Pro-Thr-Gln-Phe-Cys]-OH]	10 to 79.4 nM	–	10 to 79.4 nM	–
